Source: patent US9206156B2, “Substituted indole derivatives” (GRÜNENTHAL GMBH, priority 2008, dated 2015)

How the values were obtained:
[1] = target: T1, ORL1 receptor (Homo sapiens, UniProt P41146); assay: ORL1 receptor binding assay with 3H-nociceptin/orphanin FQ (WGA-SPA beads); conditions: c=1 μM test substance; 0.5 nM 3H-nociceptin/orphanin FQ; membranes of recombinant CHO-ORL1 cells
T1 construct: expressed in transfected cells; host or cells: CHO (recombinant CHO-ORL1 cells), membranes
Method in brief: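 Radioligand displacement on membranes from recombinant CHO-ORL1 cells, 0.5 nM 3H-nociceptin/orphanin FQ, 20 μg membrane protein per batch in 50 mM Hepes pH 7.4, 10 mM MgCl2, 1 mM EDTA. Incubated 1 h at room temperature with WGA-SPA beads, scintillation read. Reported as Ki (nM) or % inhibition at 1 μM.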

[2] = target: T2, human μ-opiate receptor (Homo sapiens, UniProt P35372); assay: μ-opiate receptor binding assay with [3H] naloxone (WGA-SPA beads); conditions: 1 μmol/l test substance, 1 nmol/l [3H] naloxone, CHO-K1 cell membranes expressing human μ-opiate receptor
T2 construct: purchased NEN, Zaventem, Belgium RB-HOM; host or cells: CHO-K1 cells (membrane preparation)
T2 sequence (P35372 whole entry): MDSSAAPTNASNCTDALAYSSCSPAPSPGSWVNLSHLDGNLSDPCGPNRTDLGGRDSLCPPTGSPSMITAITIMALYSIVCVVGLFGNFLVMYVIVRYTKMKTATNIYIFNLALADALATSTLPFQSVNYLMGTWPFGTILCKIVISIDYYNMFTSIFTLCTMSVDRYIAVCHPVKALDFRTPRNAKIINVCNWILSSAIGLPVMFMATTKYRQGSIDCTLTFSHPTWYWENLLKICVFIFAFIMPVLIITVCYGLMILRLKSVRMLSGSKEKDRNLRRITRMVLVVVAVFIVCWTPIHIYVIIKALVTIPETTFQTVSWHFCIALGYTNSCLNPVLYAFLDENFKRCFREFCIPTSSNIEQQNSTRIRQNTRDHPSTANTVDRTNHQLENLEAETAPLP
Method in brief: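 CHO-K1 membranes expressing human μ-opiate receptor incubated 90 min at room temperature with 1 nmol/l [3H]naloxone and WGA-SPA beads in 50 mmol/l Tris-HCl with 0.05% azide, 0.06% BSA. Non-specific binding with 25 μmol/l naloxone; % inhibition at 1 μmol/l, or IC50 converted to Ki via Cheng-Prusoff.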

T1 sequence (P41146 whole entry): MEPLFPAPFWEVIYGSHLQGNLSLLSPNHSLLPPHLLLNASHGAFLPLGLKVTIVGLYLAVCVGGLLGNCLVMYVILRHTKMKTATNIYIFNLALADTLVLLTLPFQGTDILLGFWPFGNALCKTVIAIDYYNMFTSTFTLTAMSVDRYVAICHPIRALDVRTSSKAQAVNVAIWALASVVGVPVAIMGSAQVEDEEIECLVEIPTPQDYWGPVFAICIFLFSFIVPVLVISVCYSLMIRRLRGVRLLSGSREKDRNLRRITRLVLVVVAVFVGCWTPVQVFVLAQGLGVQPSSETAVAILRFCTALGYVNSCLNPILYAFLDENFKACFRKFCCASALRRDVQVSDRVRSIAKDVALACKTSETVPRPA

| Structure (SMILES) | inhibition at 1 µM [1] [%] | inhibition at 1 µM [2] [%] | % Inhibition (ORL1) at 1 μM [1] [%] | % Inhibition (μ) at 1 μM [2] [%] | % Inhibition (μ) at 1 μM ([2]; 1 µM) [%] |
| --- | --- | --- | --- | --- | --- |
| CN(C)C1(c2ccccc2)CCN(C(=O)C2CCCN(Cc3c(-c4ccc(F)cc4)[nH]c4ccccc34)C2)CC1 (centres unmarked) [Example 177, (4-(dimethylamino)-4-phenylpiperidin-1-yl)(1-((2-(4-fluorophenyl)-1H-indol-3-yl)methyl)piperidin-3-yl)methanone] | 51 | 94 | – | – | – |
| CN(C)C1(c2ccccc2)CCN(C(=O)C2CCCN(Cc3ccc4[nH]ccc4c3)C2)CC1 (centres unmarked) [Example 148, (1-((1H-indol-5-yl)methyl)piperidin-3-yl)(4-(dimethylamino)-4-phenylpiperidin-1-yl)methanone] | 17 | 41 | – | – | – |
| CCCCC1(N(C)C)CCN(CCN(C)C(=O)CC(c2c[nH]c3ccccc23)C(C)C)CC1 (centres unmarked) [Example 33, N-(2-(4-Butyl-4-(dimethylamino)piperidin-1-yl)ethyl)-3-(1H-indol-3-yl)-N,4-dimethylpentanamide] | 27 | 94 | – | – | – |
| CN(C)c1ccc2cc(C(=O)N3CCCC(C(=O)N4CCC(c5ccccc5)(N(C)C)CC4)C3)[nH]c2c1 (centres unmarked) [Example 136, (6-(dimethylamino)-1H-indol-2-yl)(3-(4-(dimethylamino)-4-phenylpiperidine-1-carbonyl)piperidin-1-yl)methanone] | 24 | 46 | – | – | – |
| CCCCC1(N(C)C)CCN(CCN(C)C(=O)C2CCCc3c2[nH]c2ccc(Cl)cc32)CC1 (centres unmarked) [Example 43, N-(2-(4-Butyl-4-(dimethylamino)piperidin-1-yl)ethyl)-6-chloro-N-methyl-2,3,4,9-tetrahydro-1H-carbazole-1-carboxamide] | 21 | 54 | – | – | – |
| COc1ccc2c(CN3CCCC(C(=O)N4CCC(c5ccccc5)(N(C)C)CC4)C3)c(C)n(C)c2c1 (centres unmarked) [Example 176, (4-(dimethylamino)-4-phenylpiperidin-1-yl)(1-((6-methoxy-1,2-dimethyl-1H-indol-3-yl)methyl)piperidin-3-yl)methanone] | 53 | 61 | – | – | – |
| CCCCC1(N(C)C)CCN(CCN(C)C(=O)Cc2c[nH]c3cc(F)ccc23)CC1 [Example 44, N-(2-(4-Butyl-4-(dimethylamino)piperidin-1-yl)ethyl)-2-(6-fluoro-1H-indol-3-yl)-N-methylacetamide] | – | – | 50 | 92 | – |
| CN(C)C1(c2ccccc2)CCN(C(=O)CCNC(=O)c2ccc3ccn(C)c3c2)CC1 [Example 99, N-(3-(4-(dimethylamino)-4-phenylpiperidin-1-yl)-3-oxopropyl)-1-methyl-1H-indole-6-carboxamide] | 71 | 87 | – | – | – |
| CN(C)C1(c2ccccc2)CCN(C(=O)C2CCCN(C(=O)Cc3c[nH]c4ccc(Br)cc34)C2)CC1 (centres unmarked) [Example 115, 2-(5-bromo-1H-indol-3-yl)-1-(3-(4-(dimethylamino)-4-phenylpiperidine-1-carbonyl)piperidin-1-yl)ethanone] | 53 | 72 | – | – | – |
| CC(C)C(CC(=O)NCCC(=O)N1CCC(c2ccccc2)(N(C)C)CC1)c1c[nH]c2ccccc12 (centres unmarked) [Example 84, N-(3-(4-(dimethylamino)-4-phenylpiperidin-1-yl)-3-oxopropyl)-3-(1H-indol-3-yl)-4-methylpentanamide] | 95 | 100 | – | – | – |
| CC(C)C(C(=O)N1CCC(c2ccccc2)(N(C)C)CC1)N(C)Cc1ccc2[nH]ccc2c1 (centres unmarked) [Example 146, 2-(((1H-indol-5-yl)methyl)(methyl)amino)-1-(4-(dimethylamino)-4-phenylpiperidin-1-yl)-3-methylbutan-1-one] | 24 | 53 | – | – | – |
| CN(C)C1(c2ccccc2)CCN(C(=O)C2CCCN(C(=O)CCc3c[nH]c4ccccc34)C2)CC1 (centres unmarked) [Example 123, 1-(3-(4-(dimethylamino)-4-phenylpiperidine-1-carbonyl)piperidin-1-yl)-3-(1H-indol-3-yl)propan-1-one] | 43 | 72 | – | – | – |
| COc1ccc2c(c1)c(CNCCN1CCC(c3cccs3)(N(C)C)CC1)c(C)n2Cc1ccccc1 [Example 78, 1-(2-((1-Benzyl-5-methoxy-2-methyl-1H-indol-3-yl)methylamino)ethyl)-N,N-dimethyl-4-(thiophen-2-yl)piperidin-4-amine] | 62 | 93 | – | – | – |
| CC(CC(=O)NC(CC(=O)N1CCC(c2cccs2)(N(C)C)CC1)c1ccccc1)c1c[nH]c2ccccc12 (centres unmarked) [Example 91, N-(3-(4-(dimethylamino)-4-(thiophen-2-yl)piperidin-1-yl)-3-oxo-1-phenylpropyl)-3-(1H-indol-3-yl)butanamide] | 89 | 97 | – | – | – |
| CN(CCCN1CCC(c2ccccc2)(N(C)C)CC1)C(=O)C1CCCc2c1[nH]c1ccc(Cl)cc21 (centres unmarked) [Example 35, 6-Chloro-N-(3-(4-(dimethylamino)-4-phenylpiperidin-1-yl)propyl)-N-methyl-2,3,4,9-tetrahydro-1H-carbazole-1-carboxamide] | 79 | 57 | – | – | – |
| CN(CCN1CCC(c2ccccc2)(N(C)C)CC1)C(=O)Cc1c[nH]c2cc(F)ccc12 [Example 27, N-(2-(4-(Dimethylamino)-4-phenylpiperidin-1-yl)ethyl)-2-(6-fluoro-1H-indol-3-yl)-N-methylacetamide] | 93 | 98 | – | – | – |
| CN(Cc1ccc2cc[nH]c2c1)C(C(=O)N1CCC(c2cccs2)(N(C)C)CC1)c1ccccc1 (centres unmarked) [Example 150, 2-(((1H-indol-6-yl)methyl)(methyl)amino)-1-(4-(dimethylamino)-4-(thiophen-2-yl)pipendin-1-yl)-2-phenylethanone] | – | – | 76 | 54 | – |
| CC(CC(=O)N(C)CCCN1CCC(c2cccs2)(N(C)C)CC1)c1c[nH]c2ccccc12 (centres unmarked) [Example 19, N-(3-(4-(Dimethylamino)-4-(thiophen-2-yl)piperidin-1-yl)propyl)-3-(1H-indol-3-yl)-N-methylbutanamide] | 59 | 89 | – | – | – |
| COc1ccc2[nH]c(C(=O)N(C)CCCN3CCC(c4cccs4)(N(C)C)CC3)cc2c1 [Example 22, N-(3-(4-(Dimethylamino)-4-(thiophen-2-yl)piperidin-1-yl)propyl)-5-methoxy-N-methyl-1H-indole-2-carboxamide] | 25 | 70 | – | – | – |
| CC(C)C(CC(=O)NCC(=O)N1CCC(c2cccs2)(N(C)C)CC1)c1c[nH]c2ccccc12 (centres unmarked) [Example 88, N-(2-(4-(dimethylamino)-4-(thiophen-2-yl)piperidin-1-yl)-2-oxoethyl)-3-(1H-indol-3-yl)-4-methylpentanamide] | 92 | 94 | – | – | – |
| CN(CCN1CCC(c2ccccc2)(N(C)C)CC1)C(=O)Cc1c[nH]c2cc(F)ccc12 [Example 90, N-(2-(4-(dimethylamino)-4-phenylpiperidin-1-yl)ethyl)-2-(6-fluoro-1H-indol-3-yl)-N-methylacetamide] | – | – | 90 | – | 99 |
| CN(CCN1CCC(c2ccccc2)(N(C)C)CC1)C(=O)c1c[nH]c2ccccc12 [Example 12, N-(2-(4-(Dimethylamino)-4-phenylpiperidin-1-yl)ethyl)-N-methyl-1H-indole-3-carboxamide] | 67 | 84 | – | – | – |
| CN(Cc1ccc2[nH]ccc2c1)C(C(=O)N1CCC(c2cccs2)(N(C)C)CC1)c1ccccc1 (centres unmarked) [Example 147, 2-(((1H-indol-5-yl)methyl)(methyl)amino)-1-(4-(dimethylamino)-4-(thiophen-2-yl)piperidin-1-yl)-2-phenylethanone] | 27 | 47 | – | – | – |
| CN(C)C1(c2ccccc2)CCN(C(=O)C2CCCN(Cc3cccc4cc[nH]c34)C2)CC1 (centres unmarked) [Example 158, (1-((1H-indol-7-yl)methyl)piperidin-3-yl)(4-(dimethylamino)-4-phenylpiperidin-1-yl)methanone] | 61 | 93 | – | – | – |
| CN(C(=O)C1CCCc2c1[nH]c1ccc(Cl)cc21)C(C(=O)N1CCC(c2cccs2)(N(C)C)CC1)c1ccccc1 (centres unmarked) [Example 134, 6-chloro-N-(2-(4-(dimethylamino)-4-(thiophen-2-yl)piperidin-1-yl)-2-oxo-1-phenylethyl)-N-methyl-2,3,4,9-tetrahydro-1H-carbazole-1-carboxamide] | 29 | 34 | – | – | – |
| CN(C)C1(c2ccccc2)CCN(C(=O)C2CN(Cc3ccc4[nH]ccc4c3)c3ccccc32)CC1 (centres unmarked) [Example 166, (1-((1H-indol-5-yl)methyl)indolin-3-yl)(4-(dimethylamino)-4-phenylpiperidin-1-yl)methanone] | 40 | 77 | – | – | – |
| CN(C(=O)Cc1c[nH]c2ccc(Br)cc12)C(C(=O)N1CCC(c2cccs2)(N(C)C)CC1)c1ccccc1 (centres unmarked) [Example 100, 2-(5-bromo-1H-indol-3-yl)-N-(2-(4-(dimethylamino)-4-(thiophen-2-yl)piperidin-1-yl)-2-oxo-1-phenylethyl)-N-methylacetamide] | 69 | 95 | – | – | – |
| CCCCC1(N(C)C)CCN(CCN(C)C(=O)Cc2c[nH]c3cc(F)ccc23)CC1 [Example 112, N-(2-(4-butyl-4-(dimethylamino)piperidin-1-yl)ethyl)-2-(6-fluoro-1H-indol-3-yl)-N-methylacetamide] | 59 | 92 | – | – | – |
